Measured values taken from PMC3141655 (BMC Biochemistry, 2011).
Read-outs that look alike come from different tables or passages of the source.

Experiments:
[1] = biological target: T1, StOASS (O-acetylserine sulfhydrylase) (Salmonella typhimurium, UniProt P0A1E3)
Description: (§1) Isothermal titration calorimetry (ITC) experiments were performed using a Nano-ITC (TA-Instruments). OASS was dialyzed at 25°C in 20 mM Tris buffer (pH 8.0) and 50 mM NaCl. Buffer solutions were degassed at room temperature prior to use. […] The heat of dilution for each injection was determined using buffer in the cell. Data obtained from the titration of ligands with OASS were analyzed using either a two-sites binding model (eqn 2)(2) [drawing 2]
(§2) Qi^tot is total heat after the i^th injection, V0 is the volume of calorimetric cell, K1 and K2 are the observed equilibrium constants for each site, and ΔH1 and ΔH2 are the corresponding enthalpy changes. Estimates of Kobs and ΔH were obtained by fitting the experimental data to the model and the best-fit parameters were selected based on the lowest Chi-squared values.

[2] = biological target: T2, HiOASS (O-acetylserine sulfhydrylase) (Haemophilus influenzae, UniProt P45040); details: for TdS / ΔG / ΔH: 20 mM Tris pH 8.0, 50 mM NaCl
Description: as §1, §2

[3] = biological target: T1, StOASS (O-acetylserine sulfhydrylase); test: PLP fluorescence titration of ligands with StOASS; format: binding; parameters: His tag (N); made in house; host or cells: E. coli BL21(DE3), pET28a(+)
Description: Titrations of ligands with StOASS were examined by monitoring changes in the active site pyridoxal 5'phosphate (PLP) fluorescence of OASS using a Varian spectrofluorometer. The excitation and emission wavelengths for monitoring PLP signal change upon ligand binding were 412 nm and 507 nm respectively. All experiments were done at 23.0 ± 1°C. Slit widths were set to 5 nm for all experiments and PMT voltage was adjusted to get maximum signal for a given protein concentration. Initial readings of both the sample, Fsamp,0 and buffer, Fbuf,0 were taken, with F0 = Fsamp,0-Fbuf,0 defined as the initial fluorescence of the sample. The sample cuvette was then titrated with aliquots of ligands and mixed, equilibrated for 2-5 minutes before measurement. Data points from five such measurements were averaged to obtain Fave,i. The relative fluorescence quenching upon ligand binding is defined as Qobs,i = (F0-Fobs,i)/F0. All measurements were corrected for dilution, and inner filter effects.
Binding of ligands to OASS was analyzed to obtain the equilibrium binding constant, Kobs = [PL]/[P]*[L], using a single or two independent site binding models (eqn 1)(1) [drawing 1]
Where n, number of binding sites, Qobs, observed fluorescence quenching and Qmax, the maximum fluorescence quenching at saturation.

[4] = biological target: T2, HiOASS (O-acetylserine sulfhydrylase); test: PLP fluorescence titration of ligands with HiOASS; format: binding; parameters: His tag (N); made in house; host or cells: E. coli BL21(DE3), pET28a(+); details: 20 mM Tris pH 8.0
[5] = 10°C, 20 mM Tris pH 8.0, 50 mM NaCl
[6] = 15°C, 20 mM Tris pH 8.0, 50 mM NaCl
[7] = 20°C, 20 mM Tris pH 8.0, 50 mM NaCl
[8] = 25°C, 20 mM Tris pH 8.0, 50 mM NaCl
[9] = 30°C, 20 mM Tris pH 8.0, 50 mM NaCl
[10] = 35°C, 20 mM Tris pH 8.0, 50 mM NaCl
[11] = from dependence of enthalpy on temperature
[12] = [NaCl] 0.02 M, 20 mM Tris pH 8.0
[13] = [NaCl] 0.05 M, 20 mM Tris pH 8.0
[14] = [NaCl] 0.1 M, 20 mM Tris pH 8.0
[15] = [NaCl] 0.2 M, 20 mM Tris pH 8.0
[16] = [NaCl] 0.5 M, 20 mM Tris pH 8.0

T2 sequence (P45040 whole entry): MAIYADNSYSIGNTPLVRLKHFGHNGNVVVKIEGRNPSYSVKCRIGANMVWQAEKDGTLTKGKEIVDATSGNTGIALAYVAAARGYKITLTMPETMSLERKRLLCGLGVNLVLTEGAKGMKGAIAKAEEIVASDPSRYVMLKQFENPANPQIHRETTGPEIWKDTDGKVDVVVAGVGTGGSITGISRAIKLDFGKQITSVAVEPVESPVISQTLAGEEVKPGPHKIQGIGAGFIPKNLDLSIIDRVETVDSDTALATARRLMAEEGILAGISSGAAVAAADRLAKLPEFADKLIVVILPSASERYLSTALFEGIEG
T1 sequence (P0A1E3 whole entry): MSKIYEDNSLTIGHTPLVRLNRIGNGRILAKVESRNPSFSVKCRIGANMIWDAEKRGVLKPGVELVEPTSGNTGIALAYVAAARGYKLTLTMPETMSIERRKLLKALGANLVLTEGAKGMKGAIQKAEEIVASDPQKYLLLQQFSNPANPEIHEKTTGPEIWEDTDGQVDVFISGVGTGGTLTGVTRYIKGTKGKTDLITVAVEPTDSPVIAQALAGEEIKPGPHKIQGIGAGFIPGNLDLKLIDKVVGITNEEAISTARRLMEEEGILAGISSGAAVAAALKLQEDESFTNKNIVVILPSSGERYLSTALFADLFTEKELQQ

SMILES: N[C@@H](CS)C(=O)O [Cysteine, L-cysteine]
- TdS [1, 5]: 1.65 kcal/mol
- ΔH [1, 5]: -0.645 ± 0.024 kcal/mol
- ΔG ([1]; 10°C, 20 mM Tris pH 8.0, 50 mM NaCl, two independent sites model): -2.29 ± 0.096 kcal/mol
- TdS [1, 6]: 1.63 kcal/mol
- ΔG [1, 6]: -2.29 ± 0.072 kcal/mol
- ΔH [1, 6]: -0.669 ± 0.024 kcal/mol
- TΔS ([1]; 20°C): 3.4 kJ/M
- ΔH ([1]; 20°C): -6.4 ± 0.1 kJ/M
- TdS [1, 7]: 0.813 kcal/mol
- ΔG [1, 7]: -2.34 ± 0.024 kcal/mol
- ΔH [1, 7]: -1.53 ± 0.024 kcal/mol
- TdS [1, 8]: 1.12 kcal/mol
- ΔG [1, 8]: -2.53 ± 0.024 kcal/mol
- ΔH [1, 8]: -1.41 ± 0.024 kcal/mol
- TdS [1, 9]: 1.39 kcal/mol
- ΔG [1, 9]: -2.44 ± 0.048 kcal/mol
- ΔH [1, 9]: -1.05 ± 0.048 kcal/mol
- TdS [1, 10]: 1.34 kcal/mol
- ΔG [1, 10]: -2.63 ± 0.048 kcal/mol
- ΔH [1, 10]: -1.29 ± 0.072 kcal/mol
- net heat capacity change ΔCp [1, 11]: -130 JK^-1M^-1
- TdS ([2]; 10°C): 0.884 kcal/mol
- ΔG ([2]; 10°C): -1.98 ± 0.096 kcal/mol
- ΔH ([2]; 10°C): -1.1 ± 0.024 kcal/mol
- TdS ([2]; 15°C): 0.98 kcal/mol
- ΔG ([2]; 15°C): -2.08 ± 0.048 kcal/mol
- ΔH ([2]; 15°C): -1.1 ± 0.048 kcal/mol
- TdS ([2]; 20°C): 1.22 kcal/mol
- ΔG ([2]; 20°C): -2.27 ± 0.12 kcal/mol
- ΔH ([2]; 20°C): -1.05 ± 0.048 kcal/mol
- TdS ([2]; 25°C): 0.98 kcal/mol
- ΔG ([2]; 25°C): -2.27 ± 0.12 kcal/mol
- ΔH ([2]; 25°C): -1.29 ± 0.072 kcal/mol
- TdS ([2]; 30°C): 1.55 kcal/mol
- ΔG ([2]; 30°C): -2.63 ± 0.072 kcal/mol
- ΔH ([2]; 30°C): -1.08 ± 0.096 kcal/mol
- heat capacity change ΔCp [2, 11]: -12 JK^-1M^-1
- dlogK/dlog [NaCl] ([3]; [NaCl] 0.02-0.5 M): ~ -0.21 ± 0.1
- N (number of binding sites) [3, 12]: 2
- Qmax (maximum fluorescence quenching at saturation) [3, 12]: 3.8
- ΔG [3, 12]: -3.59 ± 0.024 kcal/mol
- Kobs ([3]; [NaCl] 0.02 M, 20 mM Tris pH 8.0, similar for each of two sites): 6.0 ± 0.1 × 10^2 M^-1
- Kobs ([3]; [NaCl] 0.02 M, 20 mM Tris pH 8.0, similar for each of two sites, listed as cysteine): 600 M⁻¹
- Kobs [3, 13]: 5.6 ± 0.1 × 10^2 M^-1
- N (number of binding sites) [3, 13]: 2
- Qmax [3, 13]: 4.6
- ΔG [3, 13]: -3.56 ± 0.024 kcal/mol
- Kobs [3, 14]: 4.5 ± 0.1 × 10^2 M^-1
- N (number of binding sites) [3, 14]: 2
- Qmax [3, 14]: 4.6
- ΔG [3, 14]: -3.42 ± 0.024 kcal/mol
- Kobs [3, 15]: 3.7 ± 0.1 × 10^2 M^-1
- N (number of binding sites) [3, 15]: 2
- Qmax [3, 15]: 4.5
- ΔG [3, 15]: -3.32 ± 0.024 kcal/mol
- Kobs [3, 16]: 2.6 ± 0.1 × 10^2 M^-1
- N (number of binding sites) [3, 16]: 2
- Qmax [3, 16]: 4.7
- ΔG [3, 16]: -3.11 ± 0.024 kcal/mol
- Kd ([3]; from K1,obs and K2,obs of the PLP fluorescence titration, read-out: Kd): ~1700 µM
- Kobs ([4]; [NaCl] 0.02 M): 6.6 ± 0.1 × 10^2 M^-1
- N (number of binding sites) ([4]; [NaCl] 0.02 M): 2
- Qmax ([4]; [NaCl] 0.02 M): 3.9
- ΔG ([4]; [NaCl] 0.02 M): -3.63 ± 0.024 kcal/mol
- Kobs ([4]; [NaCl] 0.05 M): 5.6 ± 0.1 × 10^2 M^-1
- N (number of binding sites) ([4]; [NaCl] 0.05 M): 2
- Qmax ([4]; [NaCl] 0.05 M): 5.7
- Kobs ([4]; [NaCl] 0.1 M): 4.5 ± 0.1 × 10^1 M^-1
- N (number of binding sites) ([4]; [NaCl] 0.1 M): 2
- Qmax ([4]; [NaCl] 0.1 M): 5.8
- ΔG ([4]; [NaCl] 0.1 M): -2.15 ± 0.024 kcal/mol
- Kobs ([4]; [NaCl] 0.2 M): 3.1 ± 0.1 × 10^1 M^-1
- N (number of binding sites) ([4]; [NaCl] 0.2 M): 2
- Qmax ([4]; [NaCl] 0.2 M): 5.8
- ΔG ([4]; [NaCl] 0.2 M): -1.91 ± 0.024 kcal/mol
- Kobs ([4]; [NaCl] 0.5 M): 3.2 ± 0.1 × 10^1 M^-1
- N (number of binding sites) ([4]; [NaCl] 0.5 M): 2
- Qmax ([4]; [NaCl] 0.5 M): 3.1
- ΔG ([4]; [NaCl] 0.5 M): -1.91 ± 0.024 kcal/mol
